For test [1], the target named is Small conductance calcium-activated potassium channel protein 2 (Rattus norvegicus, UniProt P70604). Description: Inhibitory concentration of compound required for SKCa blocking action was assessed from its ability to inhibit After hyperpolarisation (AHP) in cultured rat sympathetic neurons. The class given is functional, cell-based, Sympathetic neuron.
The species entered for test [2] is Rattus norvegicus. Briefly: Equieffective molar ratio (EMR) is ratio of concentrations of compound and dequalinium causing 50% inhibition of the After hyperpolarisation (AHP) in rat sympathetic neurons. It is filed as functional, Sympathetic neuron.

The structures appear in SMILES notation.

Small conductance calcium-activated potassium channel protein 2, sequence (P70604 whole entry): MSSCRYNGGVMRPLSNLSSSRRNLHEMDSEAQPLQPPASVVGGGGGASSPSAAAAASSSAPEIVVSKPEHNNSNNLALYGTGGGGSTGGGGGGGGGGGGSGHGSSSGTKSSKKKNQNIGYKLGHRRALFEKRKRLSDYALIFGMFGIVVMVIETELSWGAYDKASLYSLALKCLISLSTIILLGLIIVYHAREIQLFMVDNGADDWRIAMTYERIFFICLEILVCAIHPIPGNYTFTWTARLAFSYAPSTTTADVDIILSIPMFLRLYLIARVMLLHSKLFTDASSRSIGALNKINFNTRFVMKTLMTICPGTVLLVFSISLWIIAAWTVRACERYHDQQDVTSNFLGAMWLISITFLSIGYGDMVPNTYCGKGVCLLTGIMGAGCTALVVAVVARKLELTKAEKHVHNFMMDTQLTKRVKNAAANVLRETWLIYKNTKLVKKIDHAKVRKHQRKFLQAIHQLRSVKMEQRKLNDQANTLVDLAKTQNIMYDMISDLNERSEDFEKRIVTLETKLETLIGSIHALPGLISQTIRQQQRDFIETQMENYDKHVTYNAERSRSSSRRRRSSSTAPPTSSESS

Broadly, the IC50 is the concentration at which inhibition is half-maximal. Turning to `c1ccc(C[n+]2ccc(NCCCCCCCCCCNc3cc[n+](Cc4ccccc4)c4ccccc34)c3ccccc32)cc1`, the IC50 in test [1] worked out at 700 nM. In test [2], the EMR is reported as 1.
On to `Nc1cc[n+](Cc2ccc(-c3ccc(C[n+]4ccc(N)c5ccccc54)cc3)cc2)c2ccccc12`, for which the IC50 in test [1] was found to be 380 nM. In addition, the EMR in test [2] is reported as 0.4.
On the same counts, the results for `c1cc2cc(c1)-c1cccc(c1)C[n+]1ccc(c3ccccc31)NCCCCCCCCCCNc1cc[n+](c3ccccc13)C2` are 110 nM and 0.28.
Regarding `Nc1cc[n+](Cc2cccc(-c3cccc(C[n+]4ccc(N)c5ccccc54)c3)c2)c2ccccc12`, the IC50 in test [1] was found to be 290 nM. In test [2], the EMR was 0.55.
With `Nc1cc[n+](Cc2ccc(/C=C\c3ccc(C[n+]4ccc(N)c5ccccc54)cc3)cc2)c2ccccc12`, the IC50 in test [1] was 190 nM. In test [2], the EMR was found to be 0.24.
As to `c1ccc2c(c1)c1cc[n+]2Cc2ccc(cc2)CCc2ccc(cc2)C[n+]2ccc(c3ccccc32)NCCCCCCCCCCN1`, in test [1], the IC50 was 180 nM. In addition, the EMR in test [2] came out at 0.58.
On the same counts, the results for `Nc1cc[n+](Cc2ccc(Cc3ccc(C[n+]4ccc(N)c5ccccc54)cc3)cc2)c2ccccc12` are 450 nM and 0.39.
With `Nc1cc[n+](Cc2ccc(CCc3ccc(C[n+]4ccc(N)c5ccccc54)cc3)cc2)c2ccccc12`, the IC50 in test [1] was determined as 410 nM. In addition, in test [2], the EMR came to 0.71.
Consider `c1ccc2c(c1)c1cc[n+]2Cc2ccc(cc2)-c2ccc(cc2)C[n+]2ccc(c3ccccc32)NCCCCCCCCCCN1`, for which the IC50 in test [1] stood at 170 nM. For the same compound, the EMR in test [2] is reported as 0.28.
Regarding `C1=C\c2ccc(cc2)C[n+]2ccc(c3ccccc32)NCCCCCCCCCCNc2cc[n+](c3ccccc23)Cc2ccc/1cc2`, the IC50 in test [1] came out at 150 nM. For the same compound, the EMR in test [2] is given as 0.28.
As for `Nc1cc[n+](Cc2ccc3c(c2)Cc2cc(C[n+]4ccc(N)c5ccccc54)ccc2-3)c2ccccc12`, in test [1], the IC50 turned out to be 310 nM. For the same compound, the EMR in test [2] turned out to be 0.33.
For the compound `c1ccc2c(c1)c1cc[n+]2Cc2ccc(cc2)Cc2ccc(cc2)C[n+]2ccc(c3ccccc32)NCCCCCCCCCCN1` [UCL-1530], the concentration for half-maximal inhibition (IC50) in test [1] came out at 80 nM. Besides, the EMR in test [2] was found to be 0.16.
In the case of `c1ccc2c(c1)c1cc[n+]2Cc2ccc3c(c2)Cc2cc(ccc2-3)C[n+]2ccc(c3ccccc32)NCCCCCCCCCCN1`, the IC50 in test [1] stood at 90 nM. Further, the EMR in test [2] was 0.12.

For the origin of these results see ChEMBL document CHEMBL1151049, “Bis-quinolinium cyclophanes: A novel class of potent blockers of the apamin-sensitive Ca2+-activated K+ channel” (Bioorg Med Chem Lett, 1997).
